The record followed here is patent publication US6417235B2, “Method and use of α-amino-β-mercapto-ethane derivatives as dicarbonyl scavengers for treatment of conditions resulting from protein, lipid, and DNA damage” (University of Kentucky Research Foundation, priority 2000, dated 2002).

One test concerns CF-3 cells. Briefly: Protection of fibroblasts from alpha-dicarbonyl stress (cell count after 72 hour exposure). It is filed as cell-based, human. The settings on record: FIG. 14. As to the method: (§1) A continuous cell line of human epidermal keratinocytes (HaCat cells) and human dermal fibroblasts (CF-3 cells) were routinely cultured in 75 cm^2 flasks and split biweekly in DMEM containing 10% fetal bovine serum and kept in a humidified atmosphere containing 5% CO2 at 37° C. Human keratinocytes were split using 5% trypsin and human fibroblasts employed 1% trypsin. All experiments were carried out on 6 well dishes (Falcon USA), where keratinocytes were seeded at 2×10^4 cells/well and fibroblasts at 4×10^4 cells/well. Cells were left overnight to attach to the plate and the appropriate carbonyl scavenger was then added 15 minutes prior to the addition of the alpha-dicarbonyl stress compounds glyoxal or methylglyoxal. Following 72 hour exposure to the stress compound, cells were counted with a Coulter counter. the protective effects of the alpha-dicarbonyl scavengers were assessed by comparing the growth of untreated cells with cells exposed to alpha-carbonyl stress +/− test compound.

For the next test, the system named is histone H1. The test can be described thus: Histone H1 crosslinking by 12% SDS-PAGE with silver staining. It is filed as biochemical, calf. The settings on record: 5 mM; histone H1, ADP-ribose reaction system. As to the method: The following screening scheme is used (see Table 1): AGE-fluorescence is determined at the beginning and after five days of incubation. Test compounds that are inherently fluorescent (designated false negatives) were identified by the initial fluorescence measurement (See Table 1, NADH for example). Since these are compounds of uncertain activity, they are diverted directly to the second stage of the screen. Aminoguanidine, a known glycation inhibitory agent, was used as a positive control for suppression of the increase on AGE-fluorescence. After five days incubation and plate reading, fluorescence quenchers (designated false positives) are excluded by measuring the quenching activity of the test compound by addition of AGE modified protein having known fluorescence activity to one microtiter plate well containing test compound in the complete reaction mixture. For this, AGE-BSA is used as the AGE-type fluorescence standard. This AGE-BSA test excludes false positives compounds that function by fluorescence quenching. If fluorescence quenching occurs the test compound is excluded from further screening. […] The protein is visualized by silver staining of the gel. […] A compound that passes the first and second stage of the screen is considered a glycation inhibitor and is further evaluated for biological activity as described below. […]

A further test has as its system HaCat cells. Briefly: Protection of keratinocytes from alpha-dicarbonyl stress (cell count after 72 hour exposure). It is filed as cell-based, human. The settings on record: FIG. 14. As to the method: as §1
The test system of test [1] is glycation of histone H1 by ADP-ribose. Briefly: Screening of inhibitors of nonoxidative advanced glycation: AGE-fluorescence on 96 well-microtiter plate. It is filed as biochemical, calf. The settings on record: (± SEM, n = 2); for AGE-fluorescence (day 5): complete reaction under air. The procedure: All operations were carried out at 4° C. Chromatin was isolated from fresh calf thymus by extraction with 0.14 M NaCl, 0.05 M Na2S2O5, as described earlier in Wondrak supra. After repeated extraction with 5% HCl)4 and centrifugation (1500 g), histone H1 was precipitated from the supernatant by addition of TCA (20% final concentration v/v). The histone H1 precipitate was colleted by centrifugation (12,000 g) and deionized water. After extensive dialysis (MW cut-off: 12,000-14,000) against water for 48 h, the sample was lyophilized and the protein was stored at 4° C. SDS-PAGE (12%) was used to analyze the purity of the preparation.
Earlier studies have reported that D-penicillamine inhibits collagen crosslinking and AGE fluorescence caused by sugars (McPherson, J. D., Shilton, B. H., and Walton, D. J. 1988. Role of Fructose in Glycation and Cross-Linking of Proteins. Biochemistry 27, 1901-1907) and reaction of D-penicillamine with aldehyde groups of proteins (Deshmukh, K., and Nimm, M. E. 1969. A Defect in the Intramolecular and Intermolecular Cross-linking of Collagen caused by Penicillamine. J. Biol. Chem. 244, 1787-1795). A number of different penicillamines and penicillamine derivatives were tested to determine the inhibition of AGE-fluorescence on histone H1 at physiological pH. The reaction conditions for the glycation of histone H1 by ADP-ribose mimic physiological conditions to the extent possible. Reaction mixtures contain 1.5 mg/ml histone Hl, 1.0 mM ADP-ribose, 50 mM potassium phosphate buffer, pH 7.4, 37° C. D,L-penicillamine; L-penicillamine; D-penicllamine; D-penicillaminedisulfide and N,S- isopropylidine-D-penicillamine were tested in concentrations of 1,5 and 10 mM. The detected reaction parameter representing the accumulation of protein damage is AGE-fluorescence ((λex=[…]), which is suppressed by the presence of a compound with inhibitory activity. Generation of AGE-type fluorescence (λex=355 nm; λem=405 nm) was monitored over time at 37° C; which is in the range of the broad excitation/emission maxima of AGE compounds. To allow high throughput sample processing on 96 well microtiter plates, the reaction volumes are 300 μl. Fluorescence on the 96-well microtiter plates was measured using an automated microtiter fluorescence reader. Fluorescence of the 1 ml samples of the glycation reaction mixtures was measured using a Hitachi F-200 fluorescence spectophotometer, and prior to measurement the protein sample is dialyzed extensively against water (MW cutoff=[…]), lyophilized and reconstituted in reaction buffer. For inhibitor screening the plate is read on a Fluoroskan II plate reader (Titertek, ICN) at the excitation/emission wavelengths set forth above at a bandwidth of 35 nm.
The following screening scheme is used (see Table 1): AGE-fluorescence is determined at the beginning and after five days of incubation. Test compounds that are inherently fluorescent (designated false negatives) were identified by the initial fluorescence measurement (See Table 1, NADH for example). Since these are compounds of uncertain activity, they are diverted directly to the second stage of the screen. Aminoguanidine, a known glycation inhibitory agent, was used as a positive control for suppression of the increase on AGE-fluorescence. After five days incubation and plate reading, fluorescence quenchers (designated false positives) are excluded by measuring the quenching activity of the test compound by addition of AGE modified protein having known fluorescence activity to one microtiter plate well containing test compound in the complete reaction mixture. For this, AGE-BSA is used as the AGE-type fluorescence standard. This AGE-BSA test excludes false positives compounds that function by fluorescence quenching. If fluorescence quenching occurs the test compound is excluded from further screening. […] The protein is visualized by silver staining of the gel. […]

Consider `N=C(N)NN` [Aminoguanidine], for which the “protection from alpha-dicarbonyl stress” value in the test on CF-3 cells and in the test with HaCat cells was “protection” in each case. Further, the “inhibition of histone H1 crosslinking” value in the test with histone H1 is on record as “inhibit histone H1 crosslinking”. Besides, the “AGE-fluorescence (day 0)” value in test [1] (compound 1 mM) was 1.2 (0.1) relative units; in test [1] (compound 5 mM), 1.2 (0.1) relative units; in test [1] (compound 10 mM), 1.3 (0.1) relative units. Also, the “AGE-fluorescence (day 5)” value in test [1] (compound 1 mM) is reported as 4.3 (0.2) relative units; in test [1] (compound 5 mM), 2.0 (0.0) relative units; in test [1] (compound 10 mM), 1.8 (0.0) relative units.
